Key:
ECHCG (Barnyardgrass) = test: Postemergence herbicidal evaluation; type: in vivo, Echinochloa crus-galli; details: postemergence
Summary of the method: (§1)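 Seedlings grown about two weeks were sprayed at 40 psi with compound dispersed in 50/50 acetone/water plus 0.5% TWEEN 20, at about 0.0156 to 0.500 kg/ha. Plants were kept in the greenhouse and scored 4–5 weeks later on a 0–9 visual scale against untreated controls.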

ORYSAT (Rice, Tebonnet) = test: Postemergence herbicidal evaluation; type: in vivo, Oryza sativa, (L.) Tebonnet; details: postemergence
Summary of the method: as §1

AMBEL (Ragweed, Common) = test: Postemergence herbicidal evaluation; type: in vivo, Ambrosia artemisifolia; details: postemergence
Summary of the method: as §1

CYPSE (Flatsedge) [1] = test: Preemergence weed control under flooded paddy conditions; type: in vivo, Cyperus serotinus; details: rated 3-4 weeks after treatment
Summary of the method: (§2)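 Seeds or propagules sown in silt loam kept flooded 1.5-3 cm; compounds in 50/50 acetone/water pipetted into flood water at about 0.0313 to 0.500 kg/ha. Greenhouse; visual 0-9 rating versus untreated control 3-4 weeks after treatment.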

CASOB (Sicklepod) [2] = test: Postemergence herbicidal evaluation; type: in vivo, Cassia obtusifolia; details: postemergence
Summary of the method: as §1

CASOB (Sicklepod) [3] = test: Preemergence herbicidal evaluation; type: in vivo, Cassia obtusifolia; details: rated 4-5 weeks after treatment
Summary of the method: (§3)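 Greenhouse preemergence test: seed-soil mix sown on ~1 inch soil; aqueous acetone spray at equivalent of ~0.0156–0.500 kg/ha; greenhouse-held and watered; scored 0–9 visually at 4–5 weeks.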

[4] = test system: GLXMAW (Soybean, Williams); test: Postemergence herbicidal evaluation; type: in vivo, Glycine max, (L.) Merr. cv Williams; details: postemergence
Summary of the method: as §1

GALAP (Galium) [5] = test: Preemergence herbicidal evaluation; type: in vivo, Galium aparine; details: rated 4-5 weeks after treatment
Summary of the method: as §3

[6] = test system: CHEAL (Lambsquarters, Common); test: Postemergence herbicidal evaluation; type: in vivo, Chenopodium album; details: postemergence
Summary of the method: as §1

SETVI (Foxtail, Green) = test: Postemergence herbicidal evaluation; type: in vivo, Setaria viridis; details: postemergence
Summary of the method: as §1

GALAP (Galium) [7] = test: Postemergence herbicidal evaluation; type: in vivo, Galium aparine; details: postemergence
Summary of the method: as §1

CYPSE (Flatsedge) [8] = test: Postemergence weed control under flooded paddy conditions; type: in vivo, Cyperus serotinus; details: postemergence weeds, rated 3 to 4 weeks after treatment
Summary of the method: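 With weeds 3 to 5 cm tall and rice at the 1.5 to 2.5 leaf stage, containers were flooded and water held 1.5 to 3 cm above soil. Compounds in 50/50 v/v aqueous/acetone went into the flood water at about 0.0313 to 0.500 kg/ha a.i. Effects were visually rated 0–9 against controls after three to four weeks in the greenhouse.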

CYPIR (Rice Flatsedge) = test: Preemergence weed control under flooded paddy conditions; type: in vivo, Cyperus iria; details: rated 3-4 weeks after treatment
Summary of the method: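 Flooded-pot preemergence screen with silt loam and seeds in the upper 0.5 cm. Dose about 0.0313 to 0.500 kg/ha, delivered into flood water; visual 0-9 score after 3 to 4 weeks.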

ZEAMX (Corn, Field) = test: Preemergence herbicidal evaluation; type: in vivo, Zea mays; details: rated 4-5 weeks after treatment
Summary of the method: as §3

[9] = test system: SAGPY (Arrowhead (Pygmaea)); test: Preemergence weed control under flooded paddy conditions; type: in vivo, Sagittaria pygmaea; details: rated 3-4 weeks after treatment
Summary of the method: as §2

SMILES: C[C@H](C(=O)O)N1C(=O)CSC1=Nc1cc(-n2c(=O)cc(C(F)(F)F)n(C)c2=O)c(F)cc1Cl [Compound 70, 2-{{2-Chloro-5-[3,6-dihydro-3-methyl-2,6-dioxo-4-(trifluoromethyl)-1(2H)-pyrimidinyl]-4-fluoro-phenyl}imino}-α-methyl-4-oxo-3-thiazolidineacetic acid, D-]
- ECHCG herbicidal rating (ECHCG (Barnyardgrass); rate 0.0158 kg/ha): 0.0
- ECHCG herbicidal rating (ECHCG (Barnyardgrass); rate 0.0315 kg/ha): 2.0
- ECHCG herbicidal rating (ECHCG (Barnyardgrass); rate 0.0630 kg/ha): 9.0
- ORYSAT herbicidal rating (ORYSAT (Rice, Tebonnet); rate 0.0158 kg/ha): 2.5
- ORYSAT herbicidal rating (ORYSAT (Rice, Tebonnet); rate 0.0315 kg/ha): 3.5
- ORYSAT herbicidal rating (ORYSAT (Rice, Tebonnet); rate 0.0630 kg/ha): 5.0
- AMBEL herbicidal rating (AMBEL (Ragweed, Common); rate 0.0158 kg/ha): 6.0
- AMBEL herbicidal rating (AMBEL (Ragweed, Common); rate 0.0315 kg/ha): 6.0
- AMBEL herbicidal rating (AMBEL (Ragweed, Common); rate 0.0630 kg/ha): 7.0
- CYPSE herbicidal effect rating (CYPSE (Flatsedge) [1]; 0.0313 kg/ha): 0.0
- CYPSE herbicidal effect rating (CYPSE (Flatsedge) [1]; 0.0625 kg/ha): 0.0
- CYPSE herbicidal effect rating (CYPSE (Flatsedge) [1]; 0.1250 kg/ha): 0.0
- CYPSE herbicidal effect rating (CYPSE (Flatsedge) [1]; 0.2500 kg/ha): 3.0
- CASOB herbicidal rating (CASOB (Sicklepod) [2]; rate 0.0158 kg/ha): 0.0
- CASOB herbicidal rating (CASOB (Sicklepod) [2]; rate 0.0315 kg/ha): 0.0
- CASOB herbicidal rating (CASOB (Sicklepod) [2]; rate 0.0630 kg/ha): 3.0
- Preemergence herbicidal rating CASOB (CASOB (Sicklepod) [3]; rate 0.0156 kg/ha): 0.0
- Preemergence herbicidal rating CASOB (CASOB (Sicklepod) [3]; rate 0.0313 kg/ha): 0.0
- Preemergence herbicidal rating CASOB (CASOB (Sicklepod) [3]; rate 0.0625 kg/ha): 0.0
- Preemergence herbicidal rating CASOB (CASOB (Sicklepod) [3]; rate 0.1250 kg/ha): 1.0
- Preemergence herbicidal rating CASOB (CASOB (Sicklepod) [3]; rate 0.2500 kg/ha): 0.0
- GLXMAW herbicidal rating ([4]; rate 0.0158 kg/ha): 4.5
- GLXMAW herbicidal rating ([4]; rate 0.0315 kg/ha): 5.5
- GLXMAW herbicidal rating ([4]; rate 0.0630 kg/ha): 7.0
- Preemergence herbicidal rating GALAP (GALAP (Galium) [5]; rate 0.0156 kg/ha): 0.0
- Preemergence herbicidal rating GALAP (GALAP (Galium) [5]; rate 0.0313 kg/ha): 0.0
- Preemergence herbicidal rating GALAP (GALAP (Galium) [5]; rate 0.0625 kg/ha): 0.0
- Preemergence herbicidal rating GALAP (GALAP (Galium) [5]; rate 0.1250 kg/ha): 0.0
- Preemergence herbicidal rating GALAP (GALAP (Galium) [5]; rate 0.2500 kg/ha): 0.0
- CHEAL herbicidal rating ([6]; rate 0.0158 kg/ha): 4.0
- CHEAL herbicidal rating ([6]; rate 0.0315 kg/ha): 9.0
- SETVI herbicidal rating (SETVI (Foxtail, Green); rate 0.0158 kg/ha): 1.0
- SETVI herbicidal rating (SETVI (Foxtail, Green); rate 0.0315 kg/ha): 2.0
- SETVI herbicidal rating (SETVI (Foxtail, Green); rate 0.0630 kg/ha): 9.0
- GALAP herbicidal rating (GALAP (Galium) [7]; rate 0.0158 kg/ha): 0.0
- GALAP herbicidal rating (GALAP (Galium) [7]; rate 0.0315 kg/ha): 0.0
- GALAP herbicidal rating (GALAP (Galium) [7]; rate 0.0630 kg/ha): 3.0
- Herbicidal rating CYPSE (CYPSE (Flatsedge) [8]; Rate 0.0313 kg/ha): 0.0
- Herbicidal rating CYPSE (CYPSE (Flatsedge) [8]; Rate 0.0625 kg/ha): 0.0
- Herbicidal rating CYPSE (CYPSE (Flatsedge) [8]; Rate 0.1250 kg/ha): 0.0
- Herbicidal rating CYPSE (CYPSE (Flatsedge) [8]; Rate 0.2500 kg/ha): 3.0
- CYPIR herbicidal effect rating (CYPIR (Rice Flatsedge); 0.0313 kg/ha): 0.0
- CYPIR herbicidal effect rating (CYPIR (Rice Flatsedge); 0.0625 kg/ha): 2.0
- CYPIR herbicidal effect rating (CYPIR (Rice Flatsedge); 0.1250 kg/ha): 2.0
- CYPIR herbicidal effect rating (CYPIR (Rice Flatsedge); 0.2500 kg/ha): 2.0
- Preemergence herbicidal rating ZEAMX (ZEAMX (Corn, Field); rate 0.0156 kg/ha): 0.0
- Preemergence herbicidal rating ZEAMX (ZEAMX (Corn, Field); rate 0.0313 kg/ha): 0.0
- Preemergence herbicidal rating ZEAMX (ZEAMX (Corn, Field); rate 0.0625 kg/ha): 0.0
- Preemergence herbicidal rating ZEAMX (ZEAMX (Corn, Field); rate 0.1250 kg/ha): 1.0
- Preemergence herbicidal rating ZEAMX (ZEAMX (Corn, Field); rate 0.2500 kg/ha): 3.0
- SAGPY herbicidal effect rating ([9]; 0.0313 kg/ha): 4.0
- SAGPY herbicidal effect rating ([9]; 0.0625 kg/ha): 4.0
- SAGPY herbicidal effect rating ([9]; 0.1250 kg/ha): 4.0
- SAGPY herbicidal effect rating ([9]; 0.2500 kg/ha): 4.0

SMILES: CC(C)C[C@@H](C(=O)O)N1C(=O)CSC1=Nc1cc(-n2c(=O)cc(C(F)(F)F)n(C)c2=O)c(F)cc1Cl [Compound 71, α-Isobutyl-2-{{2-chloro-5-[3,6-dihydro-3-methyl-2,6-dioxo-4-(trifluoromethyl)-1(2H)-pyrimidinyl]-4-fluorophenyl}imino}-4-oxo-3-thiazolidineacetic acid, L-]
- ECHCG herbicidal rating (ECHCG (Barnyardgrass); rate 0.0158 kg/ha): 4.0
- ECHCG herbicidal rating (ECHCG (Barnyardgrass); rate 0.0315 kg/ha): 4.0
- ECHCG herbicidal rating (ECHCG (Barnyardgrass); rate 0.0630 kg/ha): 4.0
- ORYSAT herbicidal rating (ORYSAT (Rice, Tebonnet); rate 0.0158 kg/ha): 3.0
- ORYSAT herbicidal rating (ORYSAT (Rice, Tebonnet); rate 0.0315 kg/ha): 3.5
- ORYSAT herbicidal rating (ORYSAT (Rice, Tebonnet); rate 0.0630 kg/ha): 4.5
- AMBEL herbicidal rating (AMBEL (Ragweed, Common); rate 0.0158 kg/ha): 9.0
- AMBEL herbicidal rating (AMBEL (Ragweed, Common); rate 0.0315 kg/ha): 9.0
- AMBEL herbicidal rating (AMBEL (Ragweed, Common); rate 0.0630 kg/ha): 9.0
- CYPSE herbicidal effect rating (CYPSE (Flatsedge) [1]; 0.1250 kg/ha): 3.0
- CYPSE herbicidal effect rating (CYPSE (Flatsedge) [1]; 0.2500 kg/ha): 3.0
- CASOB herbicidal rating (CASOB (Sicklepod) [2]; rate 0.0158 kg/ha): 2.0
- CASOB herbicidal rating (CASOB (Sicklepod) [2]; rate 0.0315 kg/ha): 3.0
- CASOB herbicidal rating (CASOB (Sicklepod) [2]; rate 0.0630 kg/ha): 4.0
- Preemergence herbicidal rating CASOB (CASOB (Sicklepod) [3]; rate 0.0156 kg/ha): 0.0
- Preemergence herbicidal rating CASOB (CASOB (Sicklepod) [3]; rate 0.0313 kg/ha): 0.0
- Preemergence herbicidal rating CASOB (CASOB (Sicklepod) [3]; rate 0.0625 kg/ha): 0.0
- Preemergence herbicidal rating CASOB (CASOB (Sicklepod) [3]; rate 0.1250 kg/ha): 7.0
- Preemergence herbicidal rating CASOB (CASOB (Sicklepod) [3]; rate 0.2500 kg/ha): 9.0
- GLXMAW herbicidal rating ([4]; rate 0.0158 kg/ha): 6.5
- GLXMAW herbicidal rating ([4]; rate 0.0315 kg/ha): 7.5
- GLXMAW herbicidal rating ([4]; rate 0.0630 kg/ha): 7.5
- Preemergence herbicidal rating GALAP (GALAP (Galium) [5]; rate 0.0156 kg/ha): 0.0
- Preemergence herbicidal rating GALAP (GALAP (Galium) [5]; rate 0.0313 kg/ha): 0.0
- Preemergence herbicidal rating GALAP (GALAP (Galium) [5]; rate 0.0625 kg/ha): 0.0
- Preemergence herbicidal rating GALAP (GALAP (Galium) [5]; rate 0.1250 kg/ha): 9.0
- Preemergence herbicidal rating GALAP (GALAP (Galium) [5]; rate 0.2500 kg/ha): 6.0
- CHEAL herbicidal rating ([6]; rate 0.0158 kg/ha): 6.0
- CHEAL herbicidal rating ([6]; rate 0.0315 kg/ha): 7.0
- SETVI herbicidal rating (SETVI (Foxtail, Green); rate 0.0158 kg/ha): 4.0
- SETVI herbicidal rating (SETVI (Foxtail, Green); rate 0.0315 kg/ha): 7.0
- SETVI herbicidal rating (SETVI (Foxtail, Green); rate 0.0630 kg/ha): 9.0
- GALAP herbicidal rating (GALAP (Galium) [7]; rate 0.0158 kg/ha): 4.0
- GALAP herbicidal rating (GALAP (Galium) [7]; rate 0.0315 kg/ha): 6.0
- GALAP herbicidal rating (GALAP (Galium) [7]; rate 0.0630 kg/ha): 7.0
- Herbicidal rating CYPSE (CYPSE (Flatsedge) [8]; Rate 0.1250 kg/ha): 3.0
- Herbicidal rating CYPSE (CYPSE (Flatsedge) [8]; Rate 0.2500 kg/ha): 3.0
- CYPIR herbicidal effect rating (CYPIR (Rice Flatsedge); 0.1250 kg/ha): 3.0
- CYPIR herbicidal effect rating (CYPIR (Rice Flatsedge); 0.2500 kg/ha): 7.0
- Preemergence herbicidal rating ZEAMX (ZEAMX (Corn, Field); rate 0.0156 kg/ha): 0.0
- Preemergence herbicidal rating ZEAMX (ZEAMX (Corn, Field); rate 0.0313 kg/ha): 0.0
- Preemergence herbicidal rating ZEAMX (ZEAMX (Corn, Field); rate 0.0625 kg/ha): 0.0
- Preemergence herbicidal rating ZEAMX (ZEAMX (Corn, Field); rate 0.1250 kg/ha): 3.0
- Preemergence herbicidal rating ZEAMX (ZEAMX (Corn, Field); rate 0.2500 kg/ha): 3.0
- SAGPY herbicidal effect rating ([9]; 0.1250 kg/ha): 0.0
- SAGPY herbicidal effect rating ([9]; 0.2500 kg/ha): 0.0
